Melting point data for 38 compounds are collected here from a melting point compilation (Tetko et al.; mined from patent text by program, amines drawn as free bases though some values may be those of a salt).

What is called melting point is the temperature of the solid-liquid transition. Regarding `COc1ccc(C(=O)NCCCCCCCNC(=O)c2ccc(OC)cc2)cc1`, the melting point was 157 to 159 °C.
Consider `Cc1n[nH]c(CC(=O)O)c1Oc1cc(Cl)cc(Cl)c1`, for which the melting point fell in the range of 156 to 158 °C.
In turn, `COc1ccc(C(=O)O)cc1NC(=O)[C@H](CCCNC(=N)N[N+](=O)[O-])NC(=O)OCc1ccccc1` displayed a melting point of 208 to 209 °C.
`CC[C@H](C)C(OCc1ccccc1)[C@H]1[C@H]([N+](=O)[O-])[C@H](c2ccccc2)N[C@@H]1C(=O)NCCCCCC(=O)O` (stereo partly drawn) came in with a melting point of 105 to 106 °C.
`OC(CCCCCOc1cccc(Cl)c1)c1cccc(OCc2ccc3ccccc3n2)c1` (stereo not drawn) displayed a melting point of 69.5 to 70.5 °C.
Take `COc1ccc(N2C(=O)C(O[Si](C(C)C)(C(C)C)C(C)C)C2c2ccc(C(F)(F)F)cc2)cc1` (stereo not drawn): the melting point lay within 132 to 133 °C.
In turn, `Cn1cc(-c2cnc3ccc(Br)cc3n2)cn1` yielded a melting point of 172 °C.
`ClCCOc1ccccc1OCCCl` yielded a melting point of 55 to 56.5 °C.
With `CN1CCN(c2ccc(-c3nc(C(=O)Nc4nccs4)c(-c4ccc(Cl)cc4)[nH]3)cc2)CC1`, the melting point is greater than 250 °C.
`CCNc1nc2ccc(OC(F)(F)F)cc2s1` came in with a melting point of 135 °C.
Compound `COC(=O)c1sc(C(=O)OC)c([N+](=O)[O-])c1OC` gave a melting point of 80 to 82 °C.
Consider `Cc1nc2cccc(OCc3ccccc3)c2[nH]1`, for which the melting point lay within 119 to 121 °C.
The compound `COc1ccc(-c2nccs2)cc1OC1CCCC1` displayed a melting point of 72 to 75 °C.
Turning to `O=C(O)CSCc1ccc([N+](=O)[O-])cc1`, the melting point was in the range of 101 to 104 °C.
To `NC1=NS(=O)N=C1NCCCNc1ccc(Br)cn1` (stereo not drawn) belongs 215 to 216 °C.
`O=C1C[C@@H]2[C@@H](CC[C@@H](O)COc3cccc(Cl)c3)[C@H](O)C[C@@H]2O1` showed a melting point of 102 to 104 °C.
To `NCCCCC1Cc2ccc(C3=NNC(=O)CC3)cc2C1` (stereo not drawn) belongs 153 to 155 °C.
To `Cn1cnc2c(=S)[nH]ccc21` belongs greater than 300 °C.
To `CC1(C)CN(c2c(C#N)cnn2-c2ccc(Cl)c(Cl)c2Cl)C1=O` belongs 147 to 149 °C; to `NCCCCCC(=O)Nc1cccc(C(=O)NCCC(=O)O)c1`, 221 °C; to `Cc1cc(Br)nc(Br)c1`, 77 °C.
`Oc1cc(O)cc(Oc2nnn[nH]2)c1` displayed a melting point of 191 to 193 °C.
`COc1ccc(C2SCCS2)cc1` registered a melting point of 62 to 63 °C.
Compound `CC(SCCS(=O)(=O)N(C)C)c1ccc2c(c1)OCO2` (stereo not drawn) registered a melting point of 93 to 94.5 °C.
`CCCCCCc1ccc2c(c1)NC(NC(C)C)=NS2(=O)=O` registered a melting point of 319 to 321 °C.
`CCCc1nc2c(N)nc3cc(-c4ccccc4)ccc3c2n1CCCC(C)=O` came in with a melting point of 202 to 204 °C.
In turn, `Cc1ccc(C2Sc3ccccc3NC(=O)C2CO)cc1` (stereo not drawn) returned a melting point of 229 °C.
To `OCc1conc1-c1ccc(F)c(Br)c1` belongs 93 to 94 °C.
To `CC(C)OC1CCC(=O)N1` (stereo not drawn) belongs 68 to 71 °C; to `CSc1cnc(NC(=O)C(Cc2ccc(F)cc2)c2ccc(S(C)(=O)=O)cc2)cn1` (stereo not drawn), 188 °C; to `CC1(C)CC(NCCNCCNC2CC(C)(C)N(O)C(C)(C)C2)CC(C)(C)N1O`, 118 to 124 °C.
To `Cc1c(C)c2c(c(C)c1O)SC(C)(C)O2` belongs 62 to 64.5 °C; to `CC(C)(C)OC(=O)N1[C@@H](CC2CCCCC2)[C@H](c2ccco2)OC1(C)C`, 52 to 56 °C.
Turning to `O=c1[nH]c(=O)n(CCCCCN2CCC(OC(c3ccccc3)c3ccccc3)CC2)c2ccccc12`, the melting point was in the range of 173 to 174 °C.
As for `Cn1cc(C(=O)O)c(=O)c2cc(F)c(F)cc21`, the melting point was in the range of 284 to 287 °C.
To `CC(C)CCNC(=S)c1ccc2c(c1)N(C(C)CN1CCC[C@@H]1CO)c1ccccc1S2` (stereo partly drawn) belongs 140 °C; to `CN1C(=O)CC[C@]2(C)c3ccc(-c4ccc([N+](=O)[O-])cn4)cc3CC[C@@H]12`, 70 to 80 °C; to `[N-]=[N+]=CC(=O)OC/C=C/c1ccc(NC(=O)OCc2ccccc2)cc1F`, 93 to 96 °C.
